In patent US9090600B2, “Fungicidal 4-substituted-3-{phenyl[(heterocyclylmethoxy)imino]methyl}-1,2,4-oxadizol-5(4H)-one derivatives” (BAYER INTELLECTUAL PROPERTY GMBH, priority 2011, dated 2015):
Marks after values point to notes of the source that are not given here.

settings: pH 2.7

SMILES | LogP
Cn1c(/C(=N\OCc2csc(NC(=O)COc3ccc(Cl)cc3)n2)c2ccccc2)noc1=O [Example 164] | 3.85 [a]
CCCCC(=O)Nc1nc(CO/N=C(/c2ccc(C)cc2)c2noc(=O)n2C)cs1 [Example 169] | 3.7 [a]
Cn1c(/C(=N\OCc2cccc(NC(=O)c3ccc(I)cc3)n2)c2ccccc2)noc1=O [Example 174] | 4.29 [a]
CC(Oc1cccc(Br)c1)C(=O)Nc1cccc(CO/N=C(/c2ccccc2)c2noc(=O)n2C)n1 (stereo not drawn) [Example 179] | 4.46 [a]
COc1ccccc1C(=O)Nc1cccc(CO/N=C(/c2ccccc2)c2noc(=O)n2C)n1 [Example 181] | 3.87 [a]
CCCCOC(=S)Nc1cccc(CO/N=C(/c2ccccc2)c2noc(=O)n2C)n1 [Example 183] | 4.53 [a]
CCC1(C(=O)Nc2cccc(CO/N=C(/c3ccccc3)c3noc(=O)n3C)n2)C(C)C1(Cl)Cl (stereo not drawn) [Example 189] | 4.35 [a]
CC(C)(C)OC(=O)Nc1cccc(CO/N=C(\c2noc(=O)[nH]2)c2ccccc2F)n1 [Example 193] | 3.68 [a]
Cn1c(/C(=N\OCc2csc(NC(=O)COCc3ccccc3)n2)c2ccccc2)noc1=O [Example 194] | 3.6 [a]
Cn1c(/C(=N\OCc2cccc(NC(=O)Cc3ccc(Cl)cc3)n2)c2ccccc2)noc1=O [Example 196] | 3.92 [a]
Cn1c(/C(=N\OCc2csc(NC(=O)Cc3ccccc3)n2)c2cccc(F)c2)noc1=O [Example 203] | 3.46 [a]
CC(Oc1ccc(Br)cc1)C(=O)Nc1cccc(CO/N=C(/c2ccccc2)c2noc(=O)n2C)n1 (stereo not drawn) [Example 204] | 4.46 [a]
Cn1c(/C(=N\OCc2cccc(NC(=O)OCCCC(F)(F)F)n2)c2ccccc2)noc1=O [Example 205] | 3.85 [a]
Cc1ccccc1OCC(=O)Nc1nc(CO/N=C(/c2ccccc2)c2noc(=O)n2C)cs1 [Example 213] | 3.85 [a]
CC(C)(C)OC(=O)Nc1cccc(CO/N=C(/c2ccc(F)cc2)c2noc(=O)[nH]2)n1 [Example 214] | 3.78 [a]
COc1ccc(C(=O)Nc2cccc(CO/N=C(/c3ccccc3)c3noc(=O)n3C)n2)cc1 [Example 217] | 3.53 [a]
Cn1c(/C(=N\OCc2csc(NC(=O)C(F)(F)Oc3ccccc3)n2)c2ccccc2)noc1=O [Example 220] | 3.89 [a]
Cn1c(/C(=N\OCc2cccc(NC(=O)C3(c4ccc(Cl)cc4Cl)CC3)n2)c2ccccc2)noc1=O [Example 222] | 4.96 [a]
CC(Oc1ccccc1Cl)C(=O)Nc1cccc(CO/N=C(/c2ccccc2)c2noc(=O)n2C)n1 (stereo not drawn) [Example 231] | 4.41 [a]
Cn1c(/C(=N\OCc2csc(NC(=O)C3COc4ccccc4O3)n2)c2cccc(F)c2)noc1=O (stereo not drawn) [Example 234] | 3.7 [a]
Cn1c(/C(=N\OCc2cccc(NC(=O)OCCc3ccc(Br)cc3)n2)c2ccccc2)noc1=O [Example 238] | 4.63 [a]
CC(C)CSC(=O)Nc1cccc(CO/N=C(/c2ccccc2)c2noc(=O)n2C)n1 [Example 241] | 4.39 [a]
C#CC(C)OC(=O)Nc1cccc(CO/N=C(/c2ccccc2)c2noc(=O)n2C)n1 (stereo not drawn) [Example 242] | 3.41 [a]
Cn1c(C(=NOCc2cccc(NC(=O)OC(C)(C)C)n2)c2cccc(F)c2F)noc1=O [Example 249] | 3.94 [a]
Cc1ccc(C(=NOCc2csc(NC(=O)Cc3ccccc3)n2)c2noc(=O)n2C)cc1 [Example 252] | 3.65 [a]

SMILES | LogP
Cn1c(C(=NOCc2cccc(NC(=O)OC(C)(C)C)n2)c2cccc(F)c2F)noc1=O [Example 254] | 4.01 [a]
Cn1c(C(=NOCc2cccc(N)n2)c2ccc(F)cc2)noc1=O [Example 259] | 1.41 [a]
CC(Oc1ccc(Cl)cc1)C(=O)Nc1cccc(CON=C(c2ccccc2)c2noc(=O)n2C)n1 (stereo not drawn) [Example 260] | 4.35 [a]
Cn1c(C(=NOCc2cccc(NC(=O)COc3ccccc3Br)n2)c2ccccc2)noc1=O [Example 269] | 4.25 [a]
CC(C)CC(C)OC(=O)Nc1cccc(CO/N=C(/c2ccccc2)c2noc(=O)n2C)n1 (stereo not drawn) [Example 273] | 4.68 [a]
Cn1c(/C(=N\OCc2cccc(NC(=O)COc3ccc(Cl)cc3Cl)n2)c2ccccc2)noc1=O [Example 274] | 4.61 [a]
CC(Oc1ccccc1Br)C(=O)Nc1cccc(CO/N=C(/c2ccccc2)c2noc(=O)n2C)n1 (stereo not drawn) [Example 275] | 4.53 [a]
Cc1cc(Cl)ccc1OCCCC(=O)Nc1cccc(CO/N=C(/c2ccccc2)c2noc(=O)n2C)n1 [Example 277] | 4.73 [a]
CCCOC(=S)Nc1cccc(CO/N=C(/c2ccccc2)c2noc(=O)n2C)n1 [Example 283] | 4.11 [a]
Cc1ccc(OC(C)C(=O)Nc2cccc(CO/N=C(/c3ccccc3)c3noc(=O)n3C)n2)cc1 (stereo not drawn) [Example 287] | 4.35 [a]
Cn1c(/C(=N\OCc2cccc(NC(=O)OCCCC(F)(F)C(F)(F)F)n2)c2ccccc2)noc1=O [Example 293] | 4.29 [a]
Cn1c(/C(=N\OCc2cccc(NC(=O)c3ccccc3Oc3ccccc3)n2)c2ccccc2)noc1=O [Example 294] | 4.76 [a]
Cn1c(/C(=N\OCc2cccc(NC(=O)OCCc3ccccc3Br)n2)c2ccccc2)noc1=O [Example 298] | 4.66 [a]
CC(OC(=O)Nc1cccc(CO/N=C(/c2ccccc2)c2noc(=O)n2C)n1)C(C)(C)C (stereo not drawn) [Example 305] | 4.56 [a]
Cn1c(/C(=N\OCc2cccc(NC(=O)COc3cccc(F)c3)n2)c2ccccc2)noc1=O [Example 311] | 3.78 [a]
Cn1c(/C(=N\OCc2csc(NC(=O)COc3cccc(Br)c3)n2)c2ccccc2)noc1=O [Example 314] | 3.94 [a]
Cn1c(/C(=N\OCc2csc(NC(=O)COc3ccccc3)n2)c2ccccc2)noc1=O [Example 315] | 3.51 [a]
Cc1ccc(/C(=N/OCc2csc(NC(=O)C(C)Oc3ccccc3)n2)c2noc(=O)n2C)cc1 (stereo not drawn) [Example 319] | 3.99 [a]
CCCCSC(=O)Nc1cccc(CO/N=C(/c2ccccc2)c2noc(=O)n2C)n1 [Example 320] | 4.41 [a]
Cc1ccc(/C(=N/OCc2csc(N)n2)c2noc(=O)n2C)cc1 [Example 326] | 1.82 [a]
COc1ccc(/C(=N/OCc2cccc(NC(=O)OC(C)(C)C)n2)c2noc(=O)[nH]2)cc1 [Example 333] | 3.69 [a]
Cc1cccc(OCC(=O)Nc2cccc(CO/N=C(/c3ccccc3)c3noc(=O)n3C)n2)c1 [Example 334] | 4.07 [a]
CC(Oc1ccccc1)C(=O)Nc1nc(CO/N=C(/c2cccc(F)c2)c2noc(=O)n2C)cs1 (stereo not drawn) [Example 338] | 3.76 [a]
Cc1ccc(C(=NOCc2csc(NC(=O)OC3CCCCC3)n2)c2noc(=O)n2C)cc1 [Example 339] | 4.48 [a]
Cn1c(/C(=N\OCc2cccc(NC(=O)OCCc3ccc(Cl)cc3)n2)c2ccccc2)noc1=O [Example 349] | 4.53 [a]

SMILES | LogP
CCCCC(C)(C)OC(=O)Nc1cccc(CO/N=C(/c2ccccc2)c2noc(=O)n2C)n1 [Example 353] | 5.1 [a]
Cc1cccc(OCC(=O)Nc2nc(CO/N=C(/c3ccccc3)c3noc(=O)n3C)cs2)c1 [Example 356] | 3.8 [a]
Cn1c(/C(=N\OCc2cccc(NC(=O)OCCc3cccc(Cl)c3)n2)c2ccccc2)noc1=O [Example 359] | 4.51 [a]
Cc1ccc(C(=NOCc2csc(N(C)C=O)n2)c2noc(=O)n2C)cc1 [Example 360] | 3.06 [a]
Cn1c(/C(=N\OCc2csc(NC(=O)COc3cccc(Cl)c3)n2)c2ccccc2)noc1=O [Example 368] | 3.87 [a]
CCCCC(=O)Nc1nc(CO/N=C(/c2cccc(F)c2)c2noc(=O)n2C)cs1 [Example 370] | 3.48 [a]
Cn1c(/C(=N\OCc2cccc(NC(=O)COc3cccc(Br)c3)n2)c2ccccc2)noc1=O [Example 382] | 4.2 [a]
CCCCSC(=S)Nc1cccc(CO/N=C(/c2ccccc2)c2noc(=O)n2C)n1 [Example 385] | 4.8 [a]
Cc1cccc(/C(=N/OCc2cccc(NC(=O)c3cccc(F)c3)n2)c2noc(=O)n2C)c1 [Example 391] | 3.99 [a]
COc1ccc(C(=O)Nc2nc(CO/N=C(/c3ccccc3)c3noc(=O)n3C)cs2)cc1 [Example 393] | 3.48 [a]
Cc1ccc(C2(C(=O)Nc3cccc(CO/N=C(/c4ccccc4)c4noc(=O)n4C)n3)CC2)cc1 [Example 397] | 4.76 [a]
Cc1ccccc1OC(C)C(=O)Nc1cccc(CO/N=C(/c2ccccc2)c2noc(=O)n2C)n1 (stereo not drawn) [Example 398] | 4.46 [a]
COc1cccc(C(=NOCc2cccc(NC(=O)c3cccc(F)c3)n2)c2noc(=O)n2C)c1 [Example 399] | 3.72 [a]
Cn1c(/C(=N\OCc2cccc(NC(=O)COc3ccc(Cl)cc3)n2)c2ccccc2)noc1=O [Example 402] | 4.1 [a]
CCCCOC(=S)Nc1nc(CO/N=C(/c2ccccc2)c2noc(=O)n2C)cs1 [Example 410] | 4.56 [a]
Cn1c(/C(=N/OCc2cccc(N)n2)c2cccc(F)c2F)noc1=O [Example 416] | 1.26 [a]
Cn1c(/C(=N\OCc2cccc(NC(=O)OC3CCCCC3)n2)c2cccc(F)c2F)noc1=O [Example 417] | 4.46 [a]
CCCCC(=O)Nc1cccc(CO/N=C(/c2cccc(F)c2F)c2noc(=O)n2C)n1 [Example 420] | 3.55 [a]
Cn1c(/C(=N\OCc2csc(NC(=O)C3COc4ccccc4O3)n2)c2ccccc2Cl)noc1=O (stereo not drawn) [Example 442] | 3.73 [a]
CCCCCOC(=O)Nc1cccc(CO/N=C(/c2ccccc2F)c2noc(=O)n2C)n1 [Example 444] | 4.34 [a]
CCCC(C)C(=O)Nc1cccc(CO/N=C(/c2ccccc2F)c2noc(=O)n2C)n1 (stereo not drawn) [Example 449] | 3.73 [a]
CC(C)(C)OC(=O)Nc1cccc(CON=C(c2noc(=O)[nH]2)c2cccc(F)c2F)n1 [Example 460] | 3.76 [a]
CCCCCC(=O)Nc1cccc(CO/N=C(/c2cccc(F)c2F)c2noc(=O)n2C)n1 [Example 464] | 3.92 [a]
CCCCC(=O)Nc1cccc(CO/N=C(/c2ccccc2F)c2noc(=O)n2C)n1 [Example 480] | 3.44 [a]
CCCCC(=O)Nc1nc(CO/N=C(/c2ccccc2Cl)c2noc(=O)n2C)cs1 [Example 481] | 3.53 [a]
